One data set deals with T1, mouse RXR-α (Mus musculus, UniProt P28700).
T1 construct: The RXR-α open reading frame was then subcloned into the pcDNA3.1 Directional TOPO vector; expressed in transfected cells; host or cells: N-acetylglucosaminyltransferase I-negative HEK-293S
T1 sequence (P28700 1-467): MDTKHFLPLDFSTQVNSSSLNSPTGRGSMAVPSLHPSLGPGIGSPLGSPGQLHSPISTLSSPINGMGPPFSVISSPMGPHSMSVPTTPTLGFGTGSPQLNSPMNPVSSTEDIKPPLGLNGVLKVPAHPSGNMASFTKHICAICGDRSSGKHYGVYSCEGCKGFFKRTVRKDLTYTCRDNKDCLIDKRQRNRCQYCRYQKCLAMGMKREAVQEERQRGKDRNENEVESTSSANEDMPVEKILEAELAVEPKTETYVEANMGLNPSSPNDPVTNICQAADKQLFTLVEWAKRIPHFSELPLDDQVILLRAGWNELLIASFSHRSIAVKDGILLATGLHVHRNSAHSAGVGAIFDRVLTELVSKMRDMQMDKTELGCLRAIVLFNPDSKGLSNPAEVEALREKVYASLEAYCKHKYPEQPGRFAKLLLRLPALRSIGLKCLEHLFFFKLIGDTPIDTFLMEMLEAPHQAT
Kind of data set: RXRE (DR1) activation assay, HEK-293S cells with pRXRE-BLUE and RXR-α. The following applies: cotransfected with mouse RXR-α, 48 h. It is filed as cell-based.

In a further data set the target is T2, LRAT (Mus musculus, UniProt Q9JI60).
T2 construct: For expression Lrat coding region was amplified using the primers; expressed in transfected cells; membrane homogenate
T2 sequence (Q9JI60 1-231): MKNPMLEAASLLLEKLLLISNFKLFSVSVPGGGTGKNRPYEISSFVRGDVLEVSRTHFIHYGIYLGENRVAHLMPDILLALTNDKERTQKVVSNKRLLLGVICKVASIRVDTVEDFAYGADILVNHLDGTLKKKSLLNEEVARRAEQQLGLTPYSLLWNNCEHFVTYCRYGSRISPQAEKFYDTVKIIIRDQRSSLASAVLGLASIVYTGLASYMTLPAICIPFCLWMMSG
Kind of data set: Esterification assay, RPE microsomes and HEKK-LRAT cell homogenate. It is filed as biochemical. The following applies: 10 min, 37° C. The source says: Inducible-Expression Of LRAT Protein in HEKK Cells. Mouse Lrat cDNA was cloned as described elsewhere. For expression Lrat coding region was amplified using the primers: 5′-[…]-3′ (SEQ ID NO: 11) and […] (SEQ ID NO: 12). The PCR product was ligated into the pCR-Blunt II-TOPO vector (Invitrogen) and then subcloned into the EcoRI site of pCDNA4/TO. TetR-expressing HEKK cells were transfected with the pCDNA4/TO-Lrat construct and selected with zeocin. Stable clones were verified for expression of Lrat protein using the anti-LRAT monoclonal antibody described elsewhere (2).
Esterification assay of all-trans-retinol and all-trans-13,14-dihydroretinol. HEKK-LRAT cells were homogenized in 250 mM sucrose, 10 mM Tris-HCl with the aid of a douncer. RPE microsomes were prepared as previously described. Stecher, et al. J Biol Chem 274:8577-8585, 1999. A substrate solution, 2 μL of 1 mM stock in DMF, was added to a 1.5 ml Eppendorf tube containing 20 μL of 10% BSA and 20 μL of UV-treated RPE microsomes or 100 μL of membrane homogenate of HEKK-LRAT cells and 10 mM BTP (pH 7.5) buffer to a total volume of 200 μL. […] Then 100 μL of the hexane extract was analyzed by normal-phase HPLC, using first 0.5% ethyl acetate in hexane for 10 min to separate retinyl esters and then 20% ethyl acetate in hexane for an additional 10 min to separate retinols. Elution was monitored at 290 nm and 325 nm.

For the next data set, the target named is T3, mouse RetSat (Mus musculus, UniProt Q64FW2).
T3 construct: expressed in transfected cells
T3 sequence (Q64FW2 26-609): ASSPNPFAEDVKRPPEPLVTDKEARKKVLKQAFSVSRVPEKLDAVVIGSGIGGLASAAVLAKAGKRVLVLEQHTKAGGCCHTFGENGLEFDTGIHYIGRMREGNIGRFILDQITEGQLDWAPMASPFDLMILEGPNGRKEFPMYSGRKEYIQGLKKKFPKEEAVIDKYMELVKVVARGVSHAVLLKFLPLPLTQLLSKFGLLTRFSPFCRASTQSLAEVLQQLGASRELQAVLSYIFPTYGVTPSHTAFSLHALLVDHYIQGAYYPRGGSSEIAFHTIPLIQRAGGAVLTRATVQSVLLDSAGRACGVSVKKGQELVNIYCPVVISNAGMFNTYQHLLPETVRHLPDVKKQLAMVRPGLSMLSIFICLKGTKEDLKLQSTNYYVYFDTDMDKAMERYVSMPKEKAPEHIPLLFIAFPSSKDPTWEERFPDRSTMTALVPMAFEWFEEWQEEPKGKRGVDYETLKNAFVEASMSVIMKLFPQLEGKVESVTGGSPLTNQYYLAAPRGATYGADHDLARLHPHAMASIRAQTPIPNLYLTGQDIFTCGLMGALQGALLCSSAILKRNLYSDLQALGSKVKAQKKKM
The following applies: earlier report, Moise et al. 2004; cited from earlier work.

Regarding `CC1=C(/C=C/C(C)=C/C=C/C(C)CC(=O)O)C(C)(C)CCC1` (stereo not drawn) [all-trans-DRA, all-trans-13,14-dihydroretinoic acid], the “Activation of RXR-mediated transcription (DR1 elements)” value at mouse RXR-α was “very weak RXR activator”. Regarding `CC1=C(/C=C/C(C)=C/C=C/C(C)CCO)C(C)(C)CCC1` (stereo not drawn) [all-trans-DROL, all-trans-13,14-dihydroretinol], at LRAT, the “Esterification by LRAT (substrate activity)” value is “as good a substrate for LRAT as all-trans-retinol”. For the molecule `CC1=C(/C=C/C(C)=C/C=C/C(C)=C/C(=O)O)C(C)(C)CCC1` [all-trans-RA, all-trans-retinoic acid, reference compound], at mouse RetSat, the “Saturation by RetSat” value is “does not saturate”.

Values taken from patent US20080249042A1, “All-Trans-Retinol: All-Trans-13,14-Dihydroretinol Saturase and Methods of Its Use” (UNIVERSITY OF WASHINGTON, priority 2004, published 2008).
